For one experiment, the system named is LoVo. Briefly: Antiproliferative activity, SRB method. Type of experiment: cell-based, human. Particulars: 72 h; for inhibition at 10 µM: Homo sapiens, LoVo, read-out: mean proliferation inhibition at highest concentration used, LoVo. An excerpt:
(§1) MDA-MB-231 (human breast cancer), MCF10A (human, nontumorigenic mammary gland epithelial cells), A549 (human nonsmall-cell lung cancer), UMUC-3 (human bladder cancer) and LoVo (human colon cancer) cell lines were obtained from the American Type Culture Collection (ATCC; Rockville, Maryland, USA). The MCF-7 cell line (human breast cancer) was obtained from the European Collection of Cell Cultures (ECACC; Salisbury, UK). All cell lines were maintained at the Hirszfeld Institute of Immunology and Experimental Therapy (HIIET), Wrocław, Poland. MDA-MB-231 cells were cultured in RPMI1640 medium (Thermo Fisher Scientific, Warszawa, Poland) supplemented with 2 mM L-glutamine, 1 mM sodium pyruvate, and 10% fetal bovine serum (all from Sigma-Aldrich, Poznań, Poland). The MCF10A cell line was cultured in Ham’s F12 medium with glutamine (Corning) supplemented with 5% (v/v) fetal bovine serum (FBS), 5% (v/v) horse serum, 10 µg/mL insulin, 0.05 µg/mL cholera toxin, 0.5 µg/mL hydrocortisone, and 20 ng/mL hEGF (all from Sigma-Aldrich). A549 and LoVo cells were cultured in a 1:1 (v/v) mixture of RPMI1640 and Opti-MEM (both from HIIET) supplemented with 5% (v/v) FBS and 2 mM L-glutamine. The UMUC-3 cell line was cultured in high glucose DMEM (Thermo Fisher Scientific) supplemented with 10% FBS and 2 mM Lglutamine. The MCF-7 line was cultured in Eagle’s minimal essential medium (EMEM; Thermo Fisher Scientific) supplemented with 10% (v/v) FBS, 2 mM L-glutamine, 1% (v/v) nonessential amino acids, and 8 µg/mL insulin (all from Sigma-Aldrich). All culture media contained 100 µg/mL streptomycin (Sigma-Aldrich) and 100 U/mL penicillin (Polfa Tarchomin SA, Warszawa, Poland). The cells were grown at 37 °C in a humid atmosphere saturated with 5% CO2.
(§2) Antiproliferative activity was assessed in six cell lines utilizing the sulforhodamine B (SRB) method. Briefly, cells were seeded in 96-well plates (Sarstedt, Warszawa, Poland) at a density of 5 × 10^3 cells/well, and after overnight incubation, the cells were exposed to compounds at various concentrations. After 72 h, the plates were fixed with 50% (v/v) TCA (all from Sigma-Aldrich), washed with tap water, and the precipitated proteins were labeled with 0.1% (w/v) SRB solution in 1% (v/v) AcOH. Next, the plates were washed with 1% (v/v) AcOH, and the remaining SRB dye was solubilized with 10 mM unbuffered TRIS solution. The absorbance was measured using a Biotek Hybrid H4 reader (BioTek Instruments, VT, USA) at 540 nm. Crude results were analyzed using a previously described method, and the results are expressed as the IC50 (compound concentration that reduced cell growth by 50%) compared to the vehicletreated control (0.1% (v/v) DMSO). The samples were analyzed in triplicate, and each experiment was repeated at least three times.
(The SRB assay estimates cell density from bound dye.)

The subject of the next experiment is MDA-MB-231. Briefly: Antiproliferative activity, SRB method. Type of experiment: cell-based, human. Particulars: read-out: IC50 ± SD (n = 3) MDA-MB-231.
Text: as §1, §2

In another experiment the test system is MCF-10A. Description: Antiproliferative activity, SRB method. As to conditions: 72 h; for inhibition at 10 µM: Homo sapiens, MCF-10A, read-out: mean proliferation inhibition at highest concentration used, MCF-10A. The class given is cell-based, human.
Text: as §1, §2

The next experiment concerns MCF-7. Briefly: Antiproliferative activity, SRB method. As to conditions: 72 h; for inhibition at 10 µM: Homo sapiens, MCF7, 10 µM, read-out: mean proliferation inhibition at highest concentration used, MCF-7. Type of experiment: cell-based, human.
Text: as §1, §2

Another experiment has as its system A549. Description: Antiproliferative activity, SRB method. Type of experiment: cell-based, human. Particulars: 72 h; for inhibition at 10 µM: Homo sapiens, A549, 10 µM, read-out: mean proliferation inhibition at highest concentration used, A549.
Text: as §1, §2

A further experiment relates to UMUC-3. Briefly: Antiproliferative activity, SRB method. The class given is cell-based, human. As to conditions: 72 h; for inhibition at 10 µM: Homo sapiens, UMUC3, 10 µM, read-out: mean proliferation inhibition at highest concentration used, UMUC-3.
Text: as §1, §2

Another experiment concerns the target T1, XIAP BIR3 domain (Homo sapiens, UniProt P98170).
T1 construct: fluorescent probe 4 and the XIAP BIR3 domain (Sino Biological, Beijing, China) were used for all measurements; purchased Sino Biological, Beijing, China
Description: Fluorescence polarization inhibition (competition) assay. The class given is binding. Particulars: for inhibition at 50 µM: 0.5 h, antagonist 50 µM, inhibition of protein-probe interaction; for Ki / EC50: XIAP BIR3 50 nM, fluorescent probe 4 2 nM. The method, then:
The fluorescence polarization assay was performed at r.t. in Corning 384-well black, polystyrene flat bottom plates (Corning, NY, USA) on a Synergy H4 Hybrid Reader (BioTek, Bad Friedrichshall, Germany). For fluorescence polarization measurements, (milipolarization units, mP) 484/20 nm excitation and 528/20 nm emission filters were selected. Phosphate buffer (pH 7.5) supplemented with γ-globulin (100 µg/mL) and NaN3 (0.02% w/v), fluorescent probe 4 and the XIAP BIR3 domain (Sino Biological, Beijing, China) were used for all measurements. All experiments were performed in duplicate. The obtained fluorescence polarization assay data were analyzed with Prism 5.0 Software (GraphPad Software, San Diego, ca.).
After a 15 min incubation at r.t., fluorescent probe 4 (2 nM) was added. The values were measured 30 min after the moment the probe was added. The assay was performed in phosphate buffer with a final DMSO concentration of 1.4% (v/v). […] In order to evaluate the quality and precision of the performed screening assay, we determined the Z´ factor as described by Zhang et al.. The obtained fluorescence polarization values were used to determine the percent inhibition, which was plotted as a function of the protein concentration. The EC50 and Ki values were calculated with GraphPad software (log(agonist) vs. response (variable slope) model) in combination with the web tool developed by Nikolovska-Coleska et al..
Fluorescence polarization inhibition assay and data analysis for 41m and 42m compounds was performed as described in the Material and Methods section of the manuscript. Briefly, 50 nM solution of the BIR3 XIAP protein in polarization buffer was added into phosphoroorganic compound solution (from 50 μM to 0.0537 nM). After 15 min incubation at r.t. the fluorescent probe 4 (2 nM) was added.
The values were read after 30 minutes from the moment the probe was added. The obtained fluorescence polarization values were used to determine the percentage of inhibition which was plotted as a function of the protein concentration (Supplementary Figure S4).
(1 picture or pasted object on this page, not shown here)
(Fluorescence polarisation rises when a labelled molecule tumbles more slowly, as on binding a larger partner.)

We go through ten compounds from article PMC7497679, “Structure-based design, synthesis, and evaluation of the biological activity of novel phosphoroorganic small molecule IAP antagonists” (Investigational New Drugs, 2020).

Where two headings read alike, the source gives them in different places.

T1 sequence (P98170 252-356 limits assumed): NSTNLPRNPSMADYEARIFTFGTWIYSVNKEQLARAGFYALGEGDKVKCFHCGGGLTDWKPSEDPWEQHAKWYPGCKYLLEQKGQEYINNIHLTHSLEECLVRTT

In general, IC50 refers to the concentration at which inhibition is half-maximal. Regarding `[NH2][Pt]([NH2])([Cl])[Cl]` [CDDP, cisplatin, reference compound], the IC50 is 3.9 ± 1.3 µM in the experiment on LoVo (read-out: IC50 ± SD (n = 3) LoVo); 22.1 ± 5.26 µM in the experiment on MDA-MB-231 (72 h); 6.76 ± 1.2 µM in the experiment on MCF-10A (read-out: IC50 ± SD (n = 3) MCF-10A); 5.36 ± 1.8 µM in the experiment with MCF-7 (read-out: IC50 ± SD (n = 3) MCF-7); 1.6 ± 0.4 µM in the experiment with A549 (read-out: IC50 ± SD (n = 3) A549); 3.73 ± 0.63 µM in the experiment with UMUC-3 (read-out: IC50 ± SD (n = 3) UMUC-3).
On to `CN[C@@H](C)C(=O)N[C@H](C(=O)N1CCC[C@H]1c1nc(C(=O)c2ccc(F)cc2)cs1)C1CCCCC1` [LCL-161, reference compound], for which the inhibition at 10 µM in the experiment with LoVo was 26%; in the experiment with MCF-10A, 2%; with MCF-7 it was 19%; in the experiment on A549, 11%; in the experiment on UMUC-3, 16%. Also, the IC50 in the experiment with MDA-MB-231 (Homo sapiens, MDA-MB-231, 72 h) is 0.76 ± 0.23 µM.
For orientation: Ki means a dissociation constant, usually derived from enzyme kinetics or from competition with a known ligand. As a reminder, the EC50 is the concentration that produces a half-maximal response. For the compound `CN[C@@H](C)C(=O)N[C@H](C(=O)N1CCC[C@H]1C(=O)NC(Cc1ccccc1)P(=O)(c1ccccc1)c1ccccc1)C1CCCCC1` (some centres unmarked) [Compound 14], at XIAP BIR3 domain, the inhibition at 50 µM is 100%. The Ki on XIAP BIR3 domain worked out at 0.64 µM. Also, the EC50 at XIAP BIR3 domain (read-out: EC50) and on XIAP BIR3 domain (read-out: log EC50 (converted)) was 1.31 µM in each case. In addition, the inhibition at 10 µM in the experiment with LoVo is 7%; with MCF-10A, 1%; in the experiment on MCF-7 it was 20%; in the experiment on A549, 5%; with UMUC-3 it was 8%. For the same compound, the IC50 in the experiment on MDA-MB-231 (Homo sapiens, MDA-MB-231, 72 h) stood at 2.72 ± 0.69 µM.
Turning to `CN[C@@H](C)C(=O)N[C@H](C(=O)N1CCC[C@H]1C(=O)Nc1snnc1-c1ccccc1)C1CCCCC1` [GDC-0152, reference compound], the EC50 at XIAP BIR3 domain (read-out: EC50) turned out to be 0.01 µM. In addition, the inhibition at 10 µM in the experiment with LoVo was determined as 9%; with MCF-10A, 1%; with MCF-7 it was 18%; in the experiment with A549, 13%; with UMUC-3 it was 13%. Further, the IC50 in the experiment on MDA-MB-231 (Homo sapiens, MDA-MB-231, 72 h) came to 0.88 ± 0.21 µM.
As for `CN[C@@H](C)C(=O)N[C@H](C(=O)N1CCC[C@H]1C(=O)NC(CCc1ccccc1)P(=O)(Oc1ccccc1)Oc1ccccc1)C1CCCCC1` (stereo partly drawn) [Compound 44, diphenyl (1-((S)-1-((S)-2-cyclohexyl-2-((S)-2-(methylamino)propanamido)acetyl)pyrrolidine-2-carboxamido)-3-phenylpropyl)phosphonate], on XIAP BIR3 domain, the inhibition at 50 µM was 86.5% and the Ki turned out to be 7.57 µM. Also, the EC50 at XIAP BIR3 domain (read-out: EC50) was found to be 15.3 µM. For the same compound, the EC50 at XIAP BIR3 domain (read-out: log EC50 (converted)) was 15.3 µM.
For the compound `CN[C@@H](C)C(=O)N[C@H](C(=O)N1CCC[C@H]1C(=O)NCP(=O)(c1ccccc1C)c1ccccc1C)C1CCCCC1` [Compound 19, (S)-1-((S)-2-cyclohexyl-2-((S)-2-(methylamino)propanamido)acetyl)-N-((di-o-tolylphosphoryl)methyl)pyrrolidine-2-carboxamide], at XIAP BIR3 domain, the inhibition at 50 µM came to 66.2%. In addition, on XIAP BIR3 domain, the Ki amounted to 13.9 µM. Also, the EC50 on XIAP BIR3 domain (read-out: EC50) was 28 µM; on XIAP BIR3 domain (read-out: log EC50 (converted)), 28.1 µM.
As to `CCc1ccc(OP(=O)(Oc2ccc(CC)cc2)C(C)NC(=O)[C@@H]2CCCN2C(=O)[C@@H](NC(=O)[C@H](C)NC)C(C)C)cc1` (some centres unmarked) [Compound 23], on XIAP BIR3 domain, the inhibition at 50 µM is 64.1% and the Ki stood at 17 µM. At XIAP BIR3 domain (read-out: EC50), the EC50 was found to be 34.2 µM. Moreover, the EC50 at XIAP BIR3 domain (read-out: log EC50 (converted)) was 34.3 µM.
With `CN[C@@H](C)C(=O)N[C@H](C(=O)N1CCC[C@H]1C(=O)NCP(=O)(C1CCCCC1)C1CCCCC1)C(C)C` [Compound 9], the inhibition at 50 µM at XIAP BIR3 domain was roughly 25%.
`CN[C@@H](C)C(=O)N[C@H](C(=O)N1CCC[C@H]1C(=O)NC(Cc1ccccc1)P(=O)(c1ccccc1)c1ccccc1)C(C)C` (some centres unmarked) [Compound 13]: the inhibition at 50 µM on XIAP BIR3 domain was found to be 100%. Further, the Ki at XIAP BIR3 domain was found to be 0.75 µM. In addition, the EC50 on XIAP BIR3 domain (read-out: EC50) and at XIAP BIR3 domain (read-out: log EC50 (converted)) was 1.53 µM in each case. Besides, the inhibition at 10 µM with LoVo worked out at 6%; in the experiment with MCF-10A it was 5%; in the experiment on MCF-7 it was 22%; with A549, 2%; in the experiment on UMUC-3 it was 6%. For the same compound, in the experiment with MDA-MB-231 (Homo sapiens, MDA-MB-231, 72 h), the IC50 was determined as 3.39 ± 0.42 µM.
For `CN[C@@H](C)C(=O)N[C@H](C(=O)N1CCC[C@H]1C(=O)NCP(=O)(c1cc(C)cc(C)c1)c1cc(C)cc(C)c1)C1CCCCC1` [Compound 21], at XIAP BIR3 domain, the inhibition at 50 µM came out at 74.4% and the Ki was determined as 11.2 µM. Moreover, the EC50 on XIAP BIR3 domain (read-out: EC50) is 22.5 µM. The EC50 on XIAP BIR3 domain (read-out: log EC50 (converted)) is 22.5 µM.
